Experiments:
[1] = system: Pseudococcus longispinus males; experiment: Second field trial of attractant activity, persimmon orchard in L'Alcúdia; type: in vivo; conditions: for Attractant activity of baited devices (in words): 250 μg, versus traps without attractant (A); for Captures (mean) of P. longispinus males: rubber septum carrier loaded with 250 μg, white sticky cardboard trap, four blocks
Procedure: (§1) The response of Pseudococcus longispinus males to 2-(1,5-dimethyl-4-methylenecyclopent-2-en-1-yl)ethyl acetate was evaluated by means of a field trial carried out in a persimmon orchard, located in the town of Alginet (Valencia, Spain). Six blocks of 3 devices were installed: (A) a device with a carrier, without attractant and with a trap consisting of a white sticky cardboard (95×150 mm), (B) a device with a carrier loaded with 250 μg of the described substance by Miller et al. in 2009 (e.g. 2-(1,5,5-trimethylcyclopent-2-en-1-yl)ethyl acetate) and a trap consisting of a white sticky cardboard, and (C) a carrier device loaded with 250 μg of 2-(1,5-dimethyl-4-methylenecyclopent-2-en-1-yl)ethyl acetate and a trap consisting of a white sticky cardboard. Within each block, the devices were placed at a distance of 10 m from each other, while the distance between blocks was at least 30 m. The carriers loaded with the substances were of the rubber septa type and were inserted in the center of the trap.
(§2) The captures obtained in each of the traps were reviewed biweekly and the captured individuals were taken to the laboratory to be identified and counted.
(§3) The number of males captured per trap and per day was compared using a variance analysis (ANOVA; LSD test for comparison of means, P<0.05), prior transformation (ln(x+1)) of the data in order to homogenize the variance.
A second field trial was conducted to evaluate the attractant activity of 2-(1,5-dimethyl-4-methylenecyclopent-2-en-1-yl)ethyl propionate, in a persimmon orchard located in L'Alcúdia (Valencia, Spain). Four blocks of 3 devices were installed: (A) a device with a carrier, without attractant and with a trap consisting of a white sticky cardboard (95×150 mm), (B) a device with a carrier loaded with 250 μg of 2-(1,5-dimethyl-4-methylenecyclopent-2-en-1-yl)ethyl propionate and a trap consisting of a white sticky cardboard, and (C) a carrier device loaded with 250 μg of 2-(1,5-dimethyl-4-methylenecyclopent-2-en-1-yl)ethyl acetate and a trap consisting of a white sticky cardboard. The rest of trial conditions were the same as those described above.

[2] = system: populations of P. longispinus; experiment: Preliminary trap tests by UPV in persimmon cultivation, Valencian Community; type: in vivo, Pseudococcus longispinus
From the text: The sex pheromone of the species P. longispinus was described by Millar et al. (Sex pheromone of the longtailed mealybug: a new class of monoterpene structure. Organic Letters 2009, 11, 2683-2685) as the compound 2-(1,5,5-trimethylcyclopent-2-en-1-yl)ethyl acetate, in populations of the species collected in the United States. However, this substance turned out to be ineffective in attracting populations of P. longispinus in persimmon cultivation in the Valencian Community. […] This is not uncommon, and this phenomenon has been described for the mealybug P. ficus, whose Californian populations produce a single-component pheromone, while Israeli populations produce an additional compound (Zada, A., Dunkelblum, E., Assael, F., Harel, M., Cojocaru, M. & Mendel, Z. (2003) Sex pheromone of the vine mealybug, Planococcus ficus in Israel: occurrence of a second component in a mass-reared population. Journal of Chemical Ecology, 29, 977-988).

[3] = system: Pseudococcus longispinus males; experiment: Field trial of attraction response of males, persimmon orchard in Alginet; type: in vivo; conditions: for Captures (mean) of P. longispinus males: rubber septum carrier loaded with 250 μg, white sticky cardboard trap, six blocks, number of males captured per trap and per day compared
Procedure: as §1, §2, §3

[4] = Analysis of attractant content of the carrier after field exposure (emission); type: physicochemical
Procedure: as §1, with “Alginet” left out, “trap. […] Therefore, the average emission during those 21 days is 5.52±1.20 μg/day.” for “trap.”

With `C=C1C=CC(C)(CCOC(=O)CC)C1C` (centres unmarked) [Propionate of formula I (B), 2-(1,5-dimethyl-4-methylenecyclopent-2-en-1-yl)ethyl propionate] the “Attractant activity of baited devices (in words)” value [1] was “significant attractant activity” and the “Captures (mean) of P. longispinus males” value [1] was 89.07 b.
With `CC(=O)OCCC1(C)C=CCC1(C)C` (centres unmarked) [Millar et al. (B), 2-(1,5,5-trimethylcyclopent-2-en-1-yl)ethyl acetate] the “Attraction of populations of P. longispinus (in words)” value ([2]; persimmon cultivation in the Valencian Community) was “ineffective”, the “Males captured by traps baited with virgin females relative to traps baited with the synthetic pheromone” value ([2]; preliminary tests, virgin females of P. longispinus as comparator) was 100 times and the “Captures (mean) of P. longispinus males” value [3] was 0.21 a.
In the case of `C=C1C=CC(C)(CCOC(C)=O)C1C` (racemic) [Acetate of formula I (C), 2-(1,5-dimethyl-4-methylenecyclopent-2-en-1-yl)ethyl acetate], the “Attractant activity of baited devices (in words)” value [1] is reported as “highest level of captures”, the “Captures (mean) of P. longispinus males” value [1] is reported as 406.58 c and the “Final content of the substance in the carrier” value ([4]; after 21 days, carrier initially loaded with 250 μg) is reported as 134 µg. For the same compound, the Average emission ([4]; during 21 days, rubber septum loaded with 250 μg) was 5.52 ± 1.20 µg/day, the “Attractive power of baited devices (in words)” value ([3]; 250 μg, versus traps without attractant (A) and pheromone described by Millar et al. (B)) was “significantly higher attractive power” and the “Captures (mean) of P. longispinus males” value [3] was 19.35 b.

Source: patent US20260231936A1, “COMPOUNDS AND COMPOSITIONS THAT ATTRACT THE SPECIES PSEUDOCOCCUS LONGISPINUS, ATTRACTANT DEVICE AND METHODS FOR CONTROLLING AND/OR MONITORING THE PEST” (Universitat Politècnica de València, priority 2023, published 2026)
